# Results as given in PubChem BioAssay (NCI).
# Where “and” joins values, the source holds several entries; their conditions need not be identical. Identical values can stand only once.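 Growth conditions: 96-well plates. Treatment: test compound, 48 hours, 5 concentrations. Analysis: linear interpolation between bracketing concentrations; unreached endpoints set to highest concentration. The concentration for 50% growth inhibition is given as GI50. At the TGI there is no net growth.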
# How the values were obtained:
# Assay in all cases: NCI-60 cell line screen, 48 h
# UACC-62 melanoma = test system: UACC-62 melanoma
# SR leukemia = test system: SR leukemia
# SK-OV-3 ovarian = test system: SK-OV-3 ovarian
# EKVX NSCLC = test system: EKVX NSCLC
# 786-0 renal = test system: 786-0 renal
# A549 NSCLC = test system: A549 NSCLC
# OVCAR-8 ovarian = test system: OVCAR-8 ovarian
# SN12C renal = test system: SN12C renal
# RPMI-8226 leukemia = test system: RPMI-8226 leukemia
# UO-31 renal = test system: UO-31 renal
SMILES,GI50 (UACC-62 melanoma),TGI (UACC-62 melanoma),GI50 (SR leukemia),TGI (SR leukemia),GI50 (SK-OV-3 ovarian),TGI (SK-OV-3 ovarian),GI50 (EKVX NSCLC),TGI (EKVX NSCLC),GI50 (786-0 renal),TGI (786-0 renal),GI50 (A549 NSCLC),TGI (A549 NSCLC),GI50 (OVCAR-8 ovarian),TGI (OVCAR-8 ovarian),GI50 (SN12C renal),TGI (SN12C renal),GI50 (RPMI-8226 leukemia),TGI (RPMI-8226 leukemia),GI50 (UO-31 renal),TGI (UO-31 renal)
CCN1C(=O)N(CC)C2C1NN=c1s/c(=C\c3ccccn3)c(=O)n12 (stereo not given),0.833 µM,> 100 µM,0.455 µM,> 100 µM,3.92 µM,> 100 µM,4.45 µM,> 100 µM,4.7 µM,> 100 µM,2.15 µM,> 100 µM,3.98 µM,> 100 µM,5.29 µM,> 100 µM,1.71 µM,> 100 µM,2.51 µM,> 100 µM
COc1ccc(N(/C=C/C(=O)C(F)(F)F)CC(=O)c2ccc(F)cc2)cc1,12 µM,38.3 µM,19.1 µM,44.3 µM,42.9 µM,> 100 µM,25.4 µM,> 100 µM,21.1 µM,52.4 µM,32 µM,> 100 µM,32.1 µM,> 100 µM,14.7 µM,33.8 µM,15.2 µM,47.3 µM,36.3 µM,> 100 µM
CCSc1nc(SCC)c2c(-c3ccc(OC)c(OC)c3)c(C#N)c(SCC)nc2n1,18.5 µM,43.4 µM,26.5 µM,> 100 µM,> 100 µM,> 100 µM,17.4 µM,53.3 µM,18.7 µM,59.1 µM,30.4 µM,79.1 µM,43.8 µM,> 100 µM,21.7 µM,56.7 µM,8.38 µM,94.4 µM,32.9 µM,> 100 µM
O=C(Nc1ccc(Oc2cccc(F)c2)c(Cl)c1)c1cnccn1,2.72 µM,> 50 µM,0.242 µM,> 50 µM,10.8 µM,> 50 µM,2.67 µM,> 50 µM,3.03 µM,> 50 µM,0.938 µM,> 50 µM,2.51 µM,> 50 µM,3.6 µM,> 50 µM,1.79 µM,> 50 µM,2.93 µM,> 50 µM
C[CH2][Sn]([CH2]C)([O]C(=O)c1ccccc1F)[O][Sn]([CH2]C)([CH2]C)[O]C(=O)c1ccccc1F,18.1 µM,35.1 µM,34.6 µM,> 100 µM,> 50.5 µM,> 90.3 µM,33.9 µM,> 100 µM,25.2 µM,> 56.6 µM,> 100 µM,> 100 µM,> 62 µM,> 100 µM,27 µM,> 57.4 µM,20.9 µM,> 100 µM,> 72.4 µM,> 100 µM
CC(=O)[O][Sn]([CH2]c1ccccc1)([CH2]c1ccccc1)[CH2]c1ccccc1,> 10 µM,> 10 µM,3.76 µM,> 4.64 µM,> 10 µM,> 10 µM,> 5.53 µM,> 6.88 µM,> 7.05 µM,> 10 µM,> 8.99 µM,> 10 µM,> 10 µM,> 10 µM,> 10 µM,> 10 µM,3.65 µM,> 4.64 µM,> 8.79 µM,> 10 µM
COc1ccc(CC(=O)c2ccc(O)cc2O)cc1,93 µM,> 100 µM,> 100 µM,> 100 µM,> 100 µM,> 100 µM,47.7 µM,> 100 µM,> 100 µM,> 100 µM,> 100 µM,> 100 µM,> 100 µM,> 100 µM,93.2 µM,> 100 µM,34 µM,> 100 µM,15.4 µM,> 100 µM
O=[N+]([O-])c1ccc(N2CCC(CCCC3CCN(c4ccc([N+](=O)[O-])cc4[N+](=O)[O-])CC3)CC2)c([N+](=O)[O-])c1,,24.4 µM,,74.7 µM,,37.5 µM,,34.3 µM,,28.7 µM,,31.8 µM,,33.3 µM,,> 100 µM,,43.3 µM,,26.9 µM
Nc1ccccc1C#C/C=C\C#Cc1cccc(O)c1,1.87 µM,6.6 µM,1.55 µM,6.13 µM,3.03 µM,19.8 µM,2.69 µM,23.4 µM,3.89 µM,15.3 µM,2.78 µM,15.7 µM,0.663 µM,13.9 µM,2.66 µM,19.6 µM,2.51 µM,> 38.2 µM,,13.9 µM
O=S(=O)(/C=C/CS(=O)(=O)c1ccccc1)c1ccccc1,,52.2 µM,,36.4 µM,,87 µM,,> 100 µM,,55.6 µM,,60.8 µM,,32.5 µM,,88 µM,,95.7 µM,,> 100 µM
C[C@]12CC[C@@H]3c4ccc(O)cc4CC[C@H]3[C@@H]1Cc1cnc(N)nc12,13.6 µM,27.2 µM,7.06 µM,39.2 µM,12.8 µM,33.5 µM,9.47 µM,34.9 µM,23.3 µM,59.3 µM,44 µM,> 100 µM,92.9 µM,> 100 µM,20.6 µM,44.2 µM,12.7 µM,31.4 µM,19 µM,43.7 µM
Nc1ncnc2c1c(-c1ccc(Oc3ccccc3)cc1)nn2C[C@@H]1SSC[C@H]1O,0.264 µM,0.882 µM,0.163 µM,11.8 µM,0.92 µM,4.33 µM,0.568 µM,10.5 µM,2.41 µM,8.31 µM,1.86 µM,4.69 µM,3.35 µM,14.3 µM,2.31 µM,10.2 µM,5.58 µM,31.8 µM,1.07 µM,3.55 µM
CC1=C(CCC(C)NCc2ccc(OCCCN3CCCCC3)cc2)C(C)(C)CCC1 (stereo not given),1.94 µM,3.73 µM,0.221 µM,0.608 µM,2.06 µM,3.76 µM,1.61 µM,3.94 µM,1.6 µM,3.1 µM,2.17 µM,4.35 µM,2.48 µM,5.31 µM,1.87 µM,3.95 µM,2.29 µM,5.36 µM,1.56 µM,2.97 µM
CN(C)c1ccc(C(=NO)c2ccc(N(C)C)cc2)cc1,2.11 µM,> 100 µM,0.32 µM,> 100 µM,3.57 µM,> 100 µM,3.28 µM,> 100 µM,7.49 µM,> 100 µM,3.34 µM,> 100 µM,3.9 µM,> 100 µM,4.94 µM,> 100 µM,2.04 µM,7.94 µM,4.73 µM,> 100 µM
O=c1c(O)c(-c2ccc(O)c(O)c2)oc2cc(O)cc(O)c12,4.74 µM,25.5 µM and > 100 µM,3.57 µM,> 100 µM,18.3 µM,68.5 µM and > 100 µM,23.9 µM,> 100 µM,21.9 µM,> 100 µM,19.3 µM,> 100 µM,14.1 µM,> 100 µM,10.5 µM,> 100 µM,10.2 µM,86.9 µM,8.48 µM,> 100 µM
COC(=O)C1=C(C)NC(C)=C(C(=O)OCC(C)C)C1c1ccccc1[N+](=O)[O-] (stereo not given),2.28 µM,11.2 µM,2.53 µM,11.3 µM,4.65 µM,17.4 µM,8.06 µM,32.7 µM,3.55 µM,12.6 µM,4.52 µM,18.9 µM,4.33 µM,21 µM,4.15 µM,19.8 µM,3.25 µM,25.8 µM,1.73 µM,7.07 µM
CC1(C)CC2CC(CC(C)(C)C2=O)C1=O,,> 100 µM,,> 100 µM,,> 100 µM,,> 100 µM,,> 100 µM,,> 100 µM,,> 100 µM,,> 100 µM,,> 100 µM,,> 100 µM
Cc1ccc(-c2nc3nc(-c4ccccc4)nc(N4CCNCC4)c3o2)cc1,1.74 µM,3.27 µM,0.223 µM,0.611 µM,1.9 µM,3.42 µM,1.74 µM,3.24 µM,0.585 µM,1.27 µM,0.788 µM,2.5 µM,0.366 µM,1.19 µM,0.849 µM,2.31 µM,0.232 µM,0.571 µM,0.513 µM,1.01 µM
COc1ccc(/C=C(\C(=O)NCc2cccnc2)S(=O)(=O)c2ccccc2)cc1OC,1.76 µM,3.74 µM,3.3 µM,> 100 µM,4.1 µM,13.2 µM,3.13 µM,12.2 µM,2.86 µM,8.92 µM,2.86 µM,13.4 µM,3.84 µM,25.1 µM,2.49 µM,9.15 µM,2.43 µM,6.78 µM,2.69 µM,11.3 µM
N#CSCc1ccc(Cl)c(CSC#N)c1,2.53 µM,23.7 µM,0.0642 µM,19.2 µM,20 µM,> 100 µM,20.7 µM,> 80.3 µM,0.301 µM,17.4 µM,1.44 µM,> 58.4 µM,0.298 µM,> 73.6 µM,0.482 µM,40.7 µM,0.186 µM,28.1 µM,0.154 µM,12.8 µM
CC[C@H](CO)Nc1nc(NCc2ccccc2)c2ncn(C(C)C)c2n1,10.5 µM,34 µM,,> 79.8 µM,,> 100 µM,,44.1 µM,31.9 µM,> 100 µM,20.1 µM,> 100 µM,29.3 µM,> 100 µM,27 µM,> 100 µM,,> 77.8 µM,16.7 µM,96.9 µM
O=[N+]([O-])c1ccc(N=Nc2ccc(O)c3ccccc23)cc1,4.76 µM,32.9 µM,2.99 µM,23.4 µM,11.9 µM,47.7 µM,7.44 µM,> 100 µM,8.59 µM,> 100 µM,12 µM,> 100 µM,3.1 µM,> 100 µM,3.55 µM,> 100 µM,1.59 µM,6.55 µM,5.42 µM,> 100 µM
CN1CCc2[nH]nc(-c3n[nH]c4c3CN(C)CC4)c2C1,,> 100 µM,,> 100 µM,,> 100 µM,,> 100 µM,,> 100 µM,,> 100 µM,,> 100 µM,,> 100 µM,,> 100 µM,,> 100 µM
OCCn1cnc2c(SCc3ccccc3)ncnc21,,> 100 µM,,> 100 µM,,> 100 µM,,> 100 µM,,> 100 µM,,> 100 µM,,> 100 µM,,> 100 µM,,> 100 µM,,> 100 µM
O1[As]2O[As]3O[As]1O[As](O2)O3,0.574 µM,2.18 µM,0.295 µM,3.7 µM,2.8 µM,7 µM,1.54 µM,7.12 µM,0.528 µM,1.82 µM,3.29 µM,14.9 µM,1.89 µM,13.6 µM,0.881 µM,4.79 µM,0.29 µM,2.89 µM,1.22 µM,2.84 µM
CN(C)CC1CCC2=C(C1=O)C(c1ccc(Cl)c(Cl)c1)C1=C(CCC(CN(C)C)C1=O)O2 (stereo not given),15.3 µM,28.7 µM,1.44 µM,5.37 µM,13.3 µM,26 µM,18.2 µM,34.1 µM,1.58 µM,2.98 µM,16.2 µM,32.2 µM,4.25 µM,16 µM,14 µM,30.2 µM,0.389 µM,4.36 µM,2.78 µM,7.17 µM
NC(=O)c1ccc(-c2nc(-c3ccc4c(c3)OCO4)c(-c3ccccn3)[nH]2)cc1,> 25 µM and 35.1 µM,> 100 µM,> 25 µM and 20.4 µM,> 100 µM,> 25 µM and 39.5 µM,> 100 µM,> 25 µM and 44.9 µM,> 100 µM,> 25 µM and 36.4 µM,> 100 µM,> 25 µM and 27.7 µM,> 100 µM,> 25 µM and 34.1 µM,> 100 µM,> 25 µM and 42.2 µM,> 100 µM,24.3 µM and 20.7 µM,> 69.6 µM,> 25 µM and 32.3 µM,> 100 µM
